From US20100010219A1, “METHOD FOR PRODUCING PYRROLIDINE COMPOUND” (JAPAN TOBACCO INC., priority 2006, published 2010) come the findings set out here.

Where a name gives a salt, the structure may show the parent alone.

As a reminder, the IC50 is the point on the concentration scale where inhibition reaches its midpoint.

The assay deals with T1, human HSD-1 (recombinant HSD-1) (Homo sapiens, UniProt P28845).
T1 construct: made in house
T1 sequence (P28845 whole entry): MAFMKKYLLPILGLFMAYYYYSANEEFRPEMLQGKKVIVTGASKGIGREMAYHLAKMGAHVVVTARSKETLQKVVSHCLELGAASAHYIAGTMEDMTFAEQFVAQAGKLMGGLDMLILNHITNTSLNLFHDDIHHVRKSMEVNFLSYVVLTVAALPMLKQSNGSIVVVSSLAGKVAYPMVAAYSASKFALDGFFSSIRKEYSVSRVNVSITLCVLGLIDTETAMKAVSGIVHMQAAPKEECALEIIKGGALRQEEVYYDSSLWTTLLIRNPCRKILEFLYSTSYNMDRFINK
Description: HSD-1 activity inhibitory action in vitro (SPA, conversion of cortisone to cortisol). Format: biochemical. Conditions: recombinant human HSD-1 expressed using baculovirus system; 10 nM 3H cortisone, 500 μM NADPH; room temperature 90 to 120 min; read-out: hHSD1 (IC50 (nM)).
Take `CC(=O)NC1CN(C(=O)N2CCC(n3ncc(C(=O)N4CC[C@@H](c5ccccc5C(F)(F)F)C4)c3C3CC3)CC2)C1` [Example 45, 1-{1-[1-(3-acetylaminoazetidine-1-carbonyl)piperidin-4-yl]-5-cyclopropyl-1H-pyrazole-4-carbonyl}-[(S)-3-(2-trifluoromethylphenyl)]pyrrolidine]: the IC50 is less than 30 nM.

Regarding `CC(=O)N1CCC(OC(=O)N2CCC(n3ncc(C(=O)N4CC[C@@H](c5ccccc5C(F)(F)F)C4)c3C3CC3)CC2)CC1` [Example 63, 1-{1-[1-(1-acetylpiperidin-4-yl-oxycarbonyl)piperidin-4-yl]-5-cyclopropyl-1H-pyrazole-4-carbonyl}-[(S)-3-(2-trifluoromethylphenyl)]pyrrolidine], the IC50 was less than 30 nM.

Regarding `CC(C)[C@H](N)C(=O)N1CCC(n2ncc(C(=O)N3CC[C@@H](c4ccccc4C(F)(F)F)C3)c2C2CC2)CC1` [Example 84, 1-(1-{1-[(S)-2-amino-3-methylbutyryl]piperidin-4-yl}-5-cyclopropyl-1H-pyrazole-4-carbonyl)-[(S)-3-(2-trifluoromethylphenyl)]pyrrolidine hydrochloride], the IC50 is less than 30 nM.

Turning to `O=C(Nc1ccccc1F)N1CCC(n2ncc(C(=O)N3CCC(c4ccccc4OC(F)(F)F)C3)c2C2CC2)CC1` (centres unmarked) [Example 140, 1-{5-cyclopropyl-1-[1-(2-fluorophenylcarbamoyl)piperidin-4-yl]-1H-pyrazole-4-carbonyl}-3-(2-trifluoromethoxyphenyl)pyrrolidine], the IC50 was less than 30 nM.

For `CS(=O)(=O)NC(=O)N1CCC(n2ncc(C(=O)N3CC[C@@H](c4ccccc4C(F)(F)F)C3)c2C2CC2)CC1` [Example 56, 1-[5-cyclopropyl-1-(1-methanesulfonylaminocarbonylpiperidin-4-yl)-1H-pyrazole-4-carbonyl]-[(S)-3-(2-trifluoromethylphenyl)]pyrrolidine], the IC50 is less than 30 nM.

With `C/C(=N\C#N)N1CCC(n2ncc(C(=O)N3CC[C@@H](c4ccccc4C(F)(F)F)C3)c2C2CC2)CC1` [Example 110, 1-{1-[1-(1-cyanoiminoethyl)piperidin-4-yl]-5-cyclopropyl-1H-pyrazole-4-carbonyl}-[(S)-3-(2-trifluoromethylphenyl)]pyrrolidine], the IC50 is less than 30 nM.

Consider `O=C(c1cnn(C2CCN(c3ncccc3Cl)CC2)c1C1CC1)N1CCC(c2cccnc2)C1` (centres unmarked) [Example 187, 1-{1-[1-(3-chloropyridin-2-yl)piperidin-4-yl]-5-cyclopropyl-1H-pyrazole-4-carbonyl}-3-(pyridin-3-yl)pyrrolidine], for which the half-inhibitory concentration (IC50) is less than 30 nM.

On to `NCC(=O)N1CCC(n2ncc(C(=O)N3CC[C@@H](c4ccccc4C(F)(F)F)C3)c2C2CC2)CC1` [Example 77, 1-{1-[1-(2-aminoacetyl)piperidin-4-yl]-5-cyclopropyl-1H-pyrazole-4-carbonyl}-[(S)-3-(2-trifluoromethylphenyl)]pyrrolidine hydrochloride], for which the IC50 is less than 30 nM.

For `CC(C)NC(=O)N1CCC(n2ncc(C(=O)N3CC[C@@H](c4ccccc4C(F)(F)F)C3)c2C2CC2)CC1` [Example 125, 1-{5-cyclopropyl-1-[1-(1-isopropylcarbamoyl)piperidin-4-yl]-1H-pyrazole-4-carbonyl}-[(S)-3-(2-trifluoromethylphenyl)]pyrrolidine], the IC50 was less than 30 nM.

`O=C(NS(=O)(=O)c1ccccc1)N1CCC(n2ncc(C(=O)N3CC[C@@H](c4ccccc4C(F)(F)F)C3)c2C2CC2)CC1` [Example 55, 1-[1-(1-benzenesulfonylaminocarbonylpiperidin-4-yl)-5-cyclopropyl-1H-pyrazole-4-carbonyl]-[(S)-3-(2-trifluoromethylphenyl)]pyrrolidine]: the half-inhibitory concentration (IC50) is less than 30 nM.

With `CONC(=O)Nc1ccc(N2CCC(n3ncc(C(=O)N4CCC(c5ccccc5C(F)(F)F)C4)c3C3CC3)CC2)cc1` (centres unmarked) [Example 170, 1-(5-cyclopropyl-1-{1-[4-(3-methoxyureido)phenyl]piperidin-4-yl}-1H-pyrazole-4-carbonyl)-3-(2-trifluoromethylphenyl)pyrrolidine], the IC50 was less than 30 nM.

With `NC1CCN(C(=O)N2CCC(n3ncc(C(=O)N4CC[C@@H](c5ccccc5C(F)(F)F)C4)c3C3CC3)CC2)C1` (stereo partly drawn) [Example 36, 1-{1-[1-(3-aminopyrrolidine-1-carbonyl)piperidin-4-yl]-5-cyclopropyl-1H-pyrazole-4-carbonyl}-[(S)-3-(2-trifluoromethylphenyl)]pyrrolidine hydrochloride], the half-maximal inhibitory concentration (IC50) is less than 30 nM.

As for `N#Cc1ccc(N2CCC(n3ncc(C(=O)N4CCC(c5ccccc5C(F)(F)F)C4)c3C3CC3)CC2)nc1` (centres unmarked) [Example 175, 1-{1-[1-(5-cyanopyridin-2-yl)piperidin-4-yl]-5-cyclopropyl-1H-pyrazole-4-carbonyl}-3-(2-trifluoromethylphenyl)pyrrolidine], the IC50 was less than 30 nM.

As to `CC(=O)N1CCC(C(=O)N2CCC(n3ncc(C(=O)N4CC[C@@H](c5ccccc5C(F)(F)F)C4)c3C3CC3)CC2)CC1` [Example 91, 1-{1-[1-(1-acetylpiperidine-4-carbonyl)piperidin-4-yl]-5-cyclopropyl-1H-pyrazole-4-carbonyl}-[(S)-3-(2-trifluoromethylphenyl)]pyrrolidine], the IC50 is less than 30 nM.

For `CC1(c2c(C(=O)N3CCC(c4ccccc4CO)C3)cnn2C2CCN(c3ncccn3)CC2)CC1` (centres unmarked) [Example 180, 3-(2-hydroxymethylphenyl)-1-{5-(1-methylcyclopropyl)-1-[1-(pyrimidin-2-yl)piperidin-4-yl]-1H-pyrazole-4-carbonyl}pyrrolidine hydrochloride], the concentration for half-maximal inhibition (IC50) is less than 30 nM.

As to `N#Cc1ccccc1C1CCN(C(=O)c2cnn(C3CCN(C(=O)Nc4ccccc4F)CC3)c2C2CC2)C1` (centres unmarked) [Example 184, 3-(2-cyanophenyl)-1-{5-cyclopropyl-1-[1-(2-fluorophenylcarbamoyl)piperidin-4-yl]-1H-pyrazole-4-carbonyl}pyrrolidine], the IC50 is less than 30 nM.

With `CC(=O)N1CCC[C@H]1C(=O)N1CCC(n2ncc(C(=O)N3CC[C@@H](c4ccccc4C(F)(F)F)C3)c2C2CC2)CC1` [Example 89, 1-(1-{1-[(S)-1-acetylpyrrolidine-2-carbonyl]piperidin-4-yl}-5-cyclopropyl-1H-pyrazole-4-carbonyl)-[(S)-3-(2-trifluoromethylphenyl)]pyrrolidine], the IC50 is less than 30 nM.

For the molecule `C[C@@H]1CN(C(=O)c2cnn(C3CCN(c4ncccn4)CC3)c2C2(C)CC2)C[C@H]1c1ccccc1` (relative stereo) [Example 177, {(3S*,4R*)-3-methyl-1-{5-(1-methylcyclopropyl)-1-[1-(pyrimidin-2-yl)piperidin-4-yl]-1H-pyrazole-4-carbonyl}-4-phenylpyrrolidine hydrochloride], the IC50 was less than 30 nM.

`O=C(c1cnn(C2CCN(c3n[nH]c(C4CC4)n3)CC2)c1C1CC1)N1CC[C@@H](c2ccccc2C(F)(F)F)C1` [Example 118, 1-{5-cyclopropyl-1-[1-(5-cyclopropyl-4H-[1,2,4]triazol-3-yl)piperidin-4-yl]-1H-pyrazole-4-carbonyl}-[(S)-3-(2-trifluoromethylphenyl)]pyrrolidine hydrochloride]: the IC50 is less than 30 nM.

As to `CC(C(N)=O)N1CCC(n2ncc(C(=O)N3CC[C@@H](c4ccccc4C(F)(F)F)C3)c2C2CC2)CC1` (stereo partly drawn) [Example 103, 1-{1-[1-(1-carbamoylethyl)piperidin-4-yl]-5-cyclopropyl-1H-pyrazole-4-carbonyl}-[(S)-3-(2-trifluoromethylphenyl)]pyrrolidine hydrochloride], the concentration for half-maximal inhibition (IC50) is less than 30 nM.

For the molecule `CN(C)CCOC(=O)N1CCC(n2ncc(C(=O)N3CC[C@@H](c4ccccc4C(F)(F)F)C3)c2C2CC2)CC1` [Example 59, 1-{5-cyclopropyl-1-[1-(2-dimethylaminoethoxycarbonyl)piperidin-4-yl]-1H-pyrazole-4-carbonyl}-[(S)-3-(2-trifluoromethylphenyl)]pyrrolidine hydrochloride], the IC50 was less than 30 nM.

Regarding `CC(=O)NC1CCN(C(=O)N2CCC(n3ncc(C(=O)N4CC[C@@H](c5ccccc5C(F)(F)F)C4)c3C3CC3)CC2)C1` (stereo partly drawn) [Example 40, 1-{1-[1-(3-acetylaminopyrrolidine-1-carbonyl)piperidin-4-yl]-5-cyclopropyl-1H-pyrazole-4-carbonyl}-[(S)-3-(2-trifluoromethylphenyl)]pyrrolidine], the concentration for half-maximal inhibition (IC50) is less than 30 nM.

`Cc1nc(N2CCC(n3ncc(C(=O)N4CC[C@@H](c5ccccc5C(F)(F)F)C4)c3C3CC3)CC2)n[nH]1` [Example 117, 1-{5-cyclopropyl-1-[1-(5-methyl-4H-[1,2,4]triazol-3-yl)piperidin-4-yl]-1H-pyrazole-4-carbonyl}-[(S)-3-(2-trifluoromethylphenyl)]pyrrolidine hydrochloride]: the concentration for half-maximal inhibition (IC50) is less than 30 nM.

For the molecule `CC1(C)C(c2c(C(=O)N3CCC(c4cccnc4)C3)cnn2C2CCN(C(=O)Nc3ccccc3F)CC2)C1(C)C` (centres unmarked) [Example 138, 1-{1-[1-(2-fluorophenylcarbamoyl)piperidin-4-yl]-5-(2,2,3,3-tetramethylcyclopropyl)-1H-pyrazole-4-carbonyl}-3-(pyridin-3-yl)pyrrolidine], the half-inhibitory concentration (IC50) is less than 30 nM.

For `CC(C)C[C@@H](CO)NC(=O)N1CCC(n2ncc(C(=O)N3CC[C@@H](c4ccccc4C(F)(F)F)C3)c2C2CC2)CC1` [Example 52, 1-(5-cyclopropyl-1-{1-[(S)-1-hydroxymethyl-3-methylbutylcarbamoyl]piperidin-4-yl}-1H-pyrazole-4-carbonyl)-[(S)-3-(2-trifluoromethylphenyl)]pyrrolidine], the IC50 is less than 30 nM.

For `O=C(c1cnn(C2CCN(C(=O)N3CCC(CO)CC3)CC2)c1C1CC1)N1CC[C@@H](c2ccccc2C(F)(F)F)C1` [Example 24, 1-{5-cyclopropyl-1-[1-(4-hydroxymethylpiperidine-1-carbonyl)piperidin-4-yl]-1H-pyrazole-4-carbonyl}-[(S)-3-(2-trifluoromethylphenyl)]pyrrolidine], the IC50 was less than 30 nM.
